System: MSA patients
Assay: Safety of NMN dietary supplement: hemodynamic, blood count, inflammatory, liver, kidney, cardiac/muscular, metabolic parameters, adverse events
Format: in vivo, human
Description: The purpose of the multicentric, prospective, non-randomised, non-controlled pilot study is to study the efficacy of NMN administration in MSA patients (45-80 years old) at a larger scale. In this study, the safety, tolerance and efficacy of a dose of NMN are evaluated. The amount of NMN to be ingested daily is divided into 2 capsules (Size 0). Each patient takes 2 capsules/day in the morning during breakfast with a big glass of water. The composition of each capsule is as follows:
The main objectives of the study are to evaluate the safety of the dietary supplement during a 12-week supplementation. The safety of the food supplement is assessed in terms of: • a) Hemodynamic parameters: • Blood pressure (systolic and diastolic arterial pressure (SAP, DAP) standing up and lying down (2 min)), • Heart rate (HR, standing up/lying down (2 min)). • b) Blood Formula Counting: • Hematies, • Leukocytes (lymphocytes, monocytes, neutrophils, basophils, eosinophils), • Platelets. • c) Inflammatory parameters: • C Reactive Protein (CRP), • Sedimentation rate. • d) Liver function: • ASAT, • ALAT, • gamma GT, • Alkaline phosphatases. • e) Kidney function: • Creatinemia, • Urea. • Cardiac and muscular function: • Creatine Phosphokinase (CPK). • f) Metabolic/biochemical parameters: • lonogram (Na+, K+, Cl−), • glycated hemoglobin • g) Occurrence of undesirable effects.
48 hours before each follow-up visit by the neurological investigator, a nurse visits the patient's home to take blood samples and measure the hemodynamic parameters [SAP/DAP lying down, standing up (2 min) and HR lying down, standing up (2 min)]. In addition, during each visit, the possible occurrence of adverse events will be asked to patients. The nurse visits are scheduled between D-7 and D-2 to confirm the patient's inclusion, then at D13 (for visit V2 at D15), D43 (for visit V3 at D45) and D88 (for the end of study visit at D90). No fasting was required for the biologic assessments. To ensure the safety of the food supplement, all biological parameters must be within the limits of reference values and/or judged by the investigating physician as non-clinical.
Safety biology, pharmacokinetics and hemodynamic constants (D13; D43; D88): A blood sample is collected by a nurse at patient's home 48 hours before the visit to the investigational site (D13; D43 and D88) so that the investigator has the biological safety results on the day of the consultation.
The required bioassessment is the same as the inclusion one (D-2) and include: • Complete and differential Blood cells Counts, • Metabolic/biochemical parameters: lonogram (Na+, K+, Cl−), Glycated hemoglobin (HbA1C) • Inflammatory assessment: CRP, sedimentation rate, • Liver check-up: AST, ALT, gamma GT, ALP, bilirubin • Renal assessment: Creatinemia, urea, • Cardiac and muscular assessment: CPK;
Also, an aliquot of acidified whole blood is stored at the AML at −80° C. for the determination of NMN metabolites. The hemodynamic constants (BP and HR standing up/lying down) are taken and entered in the patient's follow-up notebook by the nurse. The nurse also questions the patient on the possible occurrence of adverse events and checks the patient's compliance with treatment by filling in his or her follow-up notebook and pill box. On receipt, the investigating physician check the results: the blood parameters must be within the reference value limits and/or judged by the investigating physician as not clinically relevant. Otherwise, the patient is summoned without delay by the investigating physician to leave the study prematurely.
At D90, the safety and tolerance of the study product is assessed by the investigating physician during the visits provided for in the protocol by means of an interview with the patient, information gathered by the volunteer in the daily diary, a clinical examination (including blood pressure and heart rate measurements) and a blood test. All patients continued to take their usual treatment for MSA.

**Q.** What does the source list for `NC(=O)c1ccc[n+]([C@@H]2O[C@H](COP(=O)([O-])O)[C@@H](O)[C@H]2O)c1` [beta-NMN, nicotinamide mononucleotide]?
**A.** ionogram and glycated hemoglobin level (3-month follow-up): stable; impact on liver function (3 months): does not thus have an impact; induction of inflammation (3 months): does not thus induce inflammation; creatine phosphokinase (3 months of follow-up): relatively stable; liver parameters (3 months of follow-up): relatively stable; renal parameters (3 months of follow-up): relatively stable; inflammatory parameters (3 months of follow-up, within or outside reference values, not clinically relevant): relatively stable; blood count values (3 months of follow-up, within reference limits or not clinically relevant): relatively stable; safety and tolerance, conclusion (MSA patients, 3 months): safe and well-tolerated; increase in average blood pressure and heart rate (NMN 400 mg/day, 3 months): does not thus lead to an increase; mean heart rate (HR) (NMN 400 mg/day, 3 months, V0-V4 comparison p-value=0.2969): normal and stable over time; Mean systolic blood pressure (NMN 400 mg/day, 3 months, V0-V4 comparison p-value=0.6172): normal and stable over time; Mean diastolic blood pressure (NMN 400 mg/day, 3 months, V0-V4 comparison p-value=0.6719): normal and stable over time; concentration of electrolytes (Na+, K+, Cl−) and glycemia (after 3 months of treatment): does not affect; impact on heart and muscle function (after 3 months of treatment): does not have an impact

From US20240116971A1, “NMN AND DERIVATIVES FOR ITS USE IN THE TREATMENT OF DEPRESSION AND/OR ANXIETY IN PATIENTS HAVING A FORM OF PARKINSONISM” (Nuvamid SA, priority 2021, published 2024)
